Where two headings read alike, the source gives them in different places.
Tests used:
Format in all cases: cell-based, HCV
[1] = Transient replicon assay, genotype 1a chimeric replicon; conditions: Hepatitis C virus, genotype 1a / genotype 1b, Huh-7, 96 h, read-out: EC50 1a, Huh7-Lunet cells transfected with chimeric replicon RNA, cultured 4 days, luciferase activity
Procedure: (§1) The transient replicon assay utilizes the genotype 1b (Con1) dicistronic subgenomic replicon. Genotype 1a activity was determined using a chimeric replicon containing the genotype 1b sequence for NS3 through NS5A nonstructural proteins and genotype 1a (H77) sequence for the NS5B region.
(§2) The RNA transcripts were generated using the Megascript T7 kit (Applied Biosystems, Foster City, Calif.). Exponentially growing Huh7-Lunet cells were mixed with 4 μg of replicon RNA and plated into a 96-well plate Gene Pulser MXcell Electroporation System (Bio-Rad, Hercules, Calif.). Electroporation was immediately performed at 250 V and 750 μF capacitance with a single exponential waveform pulse. Transfected cells were transferred to Dulbecco modified Eagle medium in the presence of 10% FBS and plated into 96-well plates with 7,500 cells per well. Compounds at various concentrations were added to the cells after 2 hours and were cultured for 4 days. The cells were lysed with the Bright-Glo Reagent (Promega, Madison, Wis.) and luciferase activity was measured with a luminometer (Wallac 1420 Multilabel HTS Counter Victor 2). The background control was replicon cells treated with 100 nM BILN-2061, an inhibitor of the HCV protease. Dose responses were performed in triplicate and the values were averaged. All experiments were repeated at least three times to verify the reproducibility.
(§3) The EC50 values were determined using a standard four-parameter dose response equation.

[2] = tested on: genotype 1b (Con1) dicistronic subgenomic replicon; test: Transient replicon assay, genotype 1b; conditions: Huh7-Lunet cells transfected with replicon RNA, cultured 4 days, luciferase activity
Procedure: as §1, §2, §3

[3] = tested on: chimeric replicon containing the genotype 1b sequence for NS3 through NS5A and genotype 1a (H77) sequence for the NS5B region; test: Transient replicon assay, genotype 1a chimeric replicon
Procedure: as §1, §2, §3

[4] = read-out: EC50 1a; Huh7-Lunet cells transfected with chimeric replicon RNA, cultured 4 days, luciferase activity

| SMILES | EC50 [1] | EC50 ([2]; Hepatitis C virus, Huh-7, 96 h) | EC50 [3, 4] | EC50 [2] | EC50 ([3]; Huh7-Lunet cells transfected with chimeric replicon RNA, cultured 4 days, luciferase activity; read-out: EC50 1a) |
| --- | --- | --- | --- | --- | --- |
| CS(=O)(=O)Nc1ccc2c(c1)S(=O)(=O)N=C(C1=C(O)[C@@H]3C4C5C6CC7C4C7C(C65)[C@@H]3N(Cc3ccc(F)cc3)C1=O)N2 [Example 2, N-{3-[(4S,9R)-5-[(4-Fluorophenyl)methyl]-8-hydroxy-6-oxo-5-azahexacyclo[8.5.0.0^2,15.0^3,12.0^4,9.0^11,13]pentadec-7-en-7-yl]-1,1-dioxo-4H-1λ^6,2,4-benzothiadiazin-7-yl}methanesulfonamide] | 8 nM | 1 nM | – | – | – |
| CS(=O)(=O)Nc1ccc2c(c1)S(=O)(=O)N=C(c1c(O)c3cccn3n(Cc3ccc(F)cc3)c1=O)N2 [Example 21, reference compound] | 400 nM | 13 nM | – | – | – |
| CS(=O)(=O)NCc1csc2c1S(=O)(=O)N=C(C1=C(O)C3C4C5C6C4C4C6C5C4C3N(Cc3ccc(F)cc3)C1=O)N2 (racemic) [Example 15, rac-N-({3-[(1R,10S)-11-[(4-fluorophenyl)methyl]-14-hydroxy-12-oxo-11-azahexacyclo[8.4.0.0^2,5.0^3,8.0^4,7.0^6,9]tetradec-13-en-13-yl]-1,1-dioxo-4H-1λ^6,5,2,4-thieno[2,3-e][1λ^6,2,4]thiadiazin-7-yl}methyl)methanesulfonamide] | – | 13 nM | – | – | – |
| CS(=O)(=O)Nc1ccc2c(c1)S(=O)(=O)N=C(C1=C(O)[C@@H]3CCC[C@@H]3N(Cc3ccc(F)cc3)C1=O)N2 [Example 17, reference compound] | 550 nM | 18 nM | – | – | – |
| CS(=O)(=O)Nc1ccc2c(c1)S(=O)(=O)N=C(C1=C(O)[C@H]3C4C5C6CC7C(C74)C(C65)[C@H]3N(Cc3ccc(F)cc3)C1=O)N2 [Example 3, N-{3-[(4R,9S)-5-[(4-Fluorophenyl)methyl]-8-hydroxy-6-oxo-5-azahexacyclo[8.5.0.0^2,15.0^3,12.0^4,9.0^11,13]pentadec-7-en-7-yl]-1,1-dioxo-4H-1λ^6,2,4-benzothiadiazin-7-yl}methanesulfonamide] | > 330 nM | > 330 nM | – | – | – |
| CS(=O)(=O)Nc1ccc2c(c1)S(=O)(=O)N=C(C1=C(O)[C@@H]3C4C5C6C7C4C7C(C65)[C@@H]3N(Cc3ccc(F)cc3)C1=O)N2 (stereo partly drawn) [Example 11, N-{3-[(1R,10S)-11-[(4-Fluorophenyl)methyl]-14-hydroxy-12-oxo-11-azahexacyclo[8.4.0.0^2,7.0^3,5.0^4,9.0^6,8]tetradec-13-en-13-yl]-1,1-dioxo-4H-1λ^6,2,4-benzothiadiazin-7-yl}methanesulfonamide] | 4 nM | 0.5 nM | – | – | – |
| CS(=O)(=O)Nc1ccc2c(c1)S(=O)(=O)N=C(C1=C(O)[C@@H]3C4CCC(CC4)[C@@H]3N(Cc3ccc(F)cc3)C1=O)N2 [Example 20, reference compound] | 12 nM | 0.6 nM | – | – | – |
| CS(=O)(=O)NCc1csc2c1S(=O)(=O)N=C(C1=C(O)[C@@H]3C4CC5CC(C4)CC(C5)[C@@H]3N(Cc3ccc(F)cc3)C1=O)N2 (racemic) [Example 6, rac-N-({3-[(2S,7R)-3-[(4-Fluorophenyl)methyl]-6-hydroxy-4-oxo-3-azatetracyclo[8.3.1.1^8,12.0^2,7]pentadec-5-en-5-yl]-1,1-dioxo-4H-1λ^6,5,2,4-thieno[2,3-e][1λ^6,2,4]thiadiazin-7-yl}methyl)methanesulfonamide] | 696 nM | 42 nM | – | – | – |
| CS(=O)(=O)Nc1ccc2c(c1)S(=O)(=O)N=C(C1=C(O)[C@@H]3C4C5C6CC7C4C7C(C65)[C@@H]3N(Cc3ccc(F)cc3)C1=O)N2 (racemic) [Example 1, rac-N-{3-[(4S,9R)-5-[(4-Fluorophenyl)methyl]-8-hydroxy-6-oxo-5-azahexacyclo[8.5.0.0^2,15.0^3,12.0^4,9.0^11,13]pentadec-7-en-7-yl]-1,1-dioxo-4H-1λ^6,2,4-benzothiadiazin-7-yl}methanesulfonamide] | 12 nM | 2 nM | – | – | – |
| CS(=O)(=O)NCc1csc2c1S(=O)(=O)N=C(C1=C(O)[C@@H]3[C@H]4CC[C@H](C4)[C@@H]3N(Cc3ccc(F)cc3)C1=O)N2 [Example 19, reference compound] | 45 nM | 2 nM | – | – | – |
| CS(=O)(=O)Nc1ccc2c(c1)S(=O)(=O)N=C(C1=C(O)[C@@H]3C4C5CC6C4C6C5[C@@H]3N(Cc3ccc(F)cc3)C1=O)N2 (mixture of isomers) [Example 7, rac-N-{3-[(1R,9S)-10-[(4-Fluorophenyl)methyl]-13-hydroxy-11-oxo-10-azapentacyclo[7.4.0.0^2,7.0^3,5.0^4,8]tridec-12-en-12-yl]-1,1-dioxo-4H-1λ^6,2,4-benzothiadiazin-7-yl}methanesulfonamide] | – | 4 nM | 137 nM | – | – |
| CS(=O)(=O)Nc1ccc2c(c1)S(=O)(=O)N=C(C1=C(O)[C@@H]3C4C5CC6C4C6C5[C@@H]3N(Cc3ccc(F)cc3)C1=O)N2 (mixture of isomers) [Example 8, rac-N-{3-[(1R,9S)-10-[(4-Fluorophenyl)methyl]-13-hydroxy-11-oxo-10-azapentacyclo[7.4.0.0^2,7.0^3,5.0^4,8]tridec-12-en-12-yl]-1,1-dioxo-4H-1λ^6,2,4-benzothiadiazin-7-yl}methanesulfonamide] | – | – | 336 nM | 4 nM | – |
| CS(=O)(=O)Nc1ccc2c(c1)S(=O)(=O)N=C(C1=C(O)[C@@H]3[C@H]4CC[C@H](C4)[C@@H]3N(Cc3ccc(F)cc3)C1=O)N2 [Example 18, reference compound] | 45 nM | 2 nM | – | – | – |
| CS(=O)(=O)NCc1csc2c1S(=O)(=O)N=C(C1=C(O)[C@@H]3C4C5CC6C4C6C5[C@@H]3N(Cc3ccc(F)cc3)C1=O)N2 (mixture of isomers) [Example 9, rac-N-({3-[(1R,9S)-10-[(4-Fluorophenyl)methyl]-13-hydroxy-11-oxo-10-azapentacyclo[7.4.0.0^2,7.0^3,5.0^4,8]tridec-12-en-12-yl]-1,1-dioxo-4H-1λ^6,5,2,4-thieno[2,3-e][1λ^6,2,4]thiadiazin-7-yl}methyl)methanesulfonamide] | 171 nM | 5 nM | – | – | – |
| CS(=O)(=O)NCc1csc2c1S(=O)(=O)N=C(C1=C(O)[C@@H]3C4C5C6CC7C4C7C(C65)[C@@H]3N(Cc3ccc(F)cc3)C1=O)N2 (racemic) [Example 4, rac-N-({3-[(4S,9R)-5-[(4-Fluorophenyl)methyl]-8-hydroxy-6-oxo-5-azahexacyclo[8.5.0.0^2,15.0^3,12.0^4,9.0^11,13]pentadec-7-en-7-yl]-1,1-dioxo-4H-1λ^6,5,2,4-thieno[2,3-e][1λ^6,2,4]thiadiazin-7-yl}methyl)methanesulfonamide] | – | – | – | 1 nM | 42 nM |
| CS(=O)(=O)Nc1ccc2c(c1)S(=O)(=O)N=C(C1=C(O)C3C4C5C6C7C4C7C(C56)C3N(Cc3ccc(F)cc3)C1=O)N2 (racemic) [Example 10, rac-N-{3-[(1R,10S)-11-[(4-Fluorophenyl)methyl]-14-hydroxy-12-oxo-11-azahexacyclo[8.4.0.0^2,70.0^3,5.0^4,9.0^6,8]tetradec-13-en-13-yl]-1,1-dioxo-4H-1λ^6,2,4-benzothiadiazin-7-yl}methanesulfonamide] | 8 nM | 1 nM | – | – | – |
| CS(=O)(=O)NCc1csc2c1S(=O)(=O)N=C(C1=C(O)C3C4C5C6C7C4C7C(C56)C3N(Cc3ccc(F)cc3)C1=O)N2 (racemic) [Example 13, rac-N-({3-[(1R,10S)-11-[(4-Fluorophenyl)methyl]-14-hydroxy-12-oxo-11-azahexacyclo[8.4.0.0^2,7.0^3,5.0^4,9.0^6,8]tetradec-13-en-13-yl]-1,1-dioxo-4H-1λ^6,5,2,4-thieno[2,3-e][1λ^6,2,4]thiadiazin-7-yl}methyl)methanesulfonamide] | 36 nM | 2 nM | – | – | – |
| CS(=O)(=O)Nc1ccc2c(c1)S(=O)(=O)N=C(C1=C(O)C3C4C5C6C4C4C6C5C4C3N(Cc3ccc(F)cc3)C1=O)N2 (racemic) [Example 14, rac-N-{3-[(1R,10S)-11-[(4-fluorophenyl)methyl]-14-hydroxy-12-oxo-11-azahexacyclo[8.4.0.0^2,5.0^3,8.0^4,7.0^6,9]tetradec-13-en-13-yl]-1,1-dioxo-4H-1λ^6,2,4-benzothiadiazin-7-yl}methanesulfonamide] | 43 nM | 2 nM | – | – | – |
| CS(=O)(=O)Nc1ccc2c(c1)S(=O)(=O)N=C(C1=C(O)[C@H]3C4C5C6C7C(C74)C(C65)[C@H]3N(Cc3ccc(F)cc3)C1=O)N2 (stereo partly drawn) [Example 12] | > 330 nM | > 330 nM | – | – | – |
| CS(=O)(=O)Nc1ccc2c(c1)S(=O)(=O)N=C(C1=C(O)[C@@H]3C4CC5CC(C4)CC(C5)[C@@H]3N(Cc3ccc(F)cc3)C1=O)N2 (racemic) [Example 5, rac-N-{3-[(2S,7R)-3-[(4-Fluorophenyl)methyl]-6-hydroxy-4-oxo-3-azatetracyclo[8.3.1.1^8,12.0^2,7]pentadec-5-en-5-yl]-1,1-dioxo-4H-1λ^6,2,4-benzothiadiazin-7-yl}methanesulfonamide] | 193 nM | 11 nM | – | – | – |
